Data from patent US20110207726A1, “Inhibitors of Human Cathepsin L, Cathepsin B, and Cathepsin S” (The Trustees of the University of Pennsylvania, priority 2008, published 2011).
Where two headings read alike, the source gives them in different places.

Target: T1, Human neutrophil cathepsin G (Homo sapiens, UniProt P08311)
T1 construct: Human neutrophil cathepsin G (Calbiochem 219373, 4.2 μg/mL); purchased Calbiochem 219373; host or cells: human neutrophils
T1 sequence (P08311 21-243 limits assumed): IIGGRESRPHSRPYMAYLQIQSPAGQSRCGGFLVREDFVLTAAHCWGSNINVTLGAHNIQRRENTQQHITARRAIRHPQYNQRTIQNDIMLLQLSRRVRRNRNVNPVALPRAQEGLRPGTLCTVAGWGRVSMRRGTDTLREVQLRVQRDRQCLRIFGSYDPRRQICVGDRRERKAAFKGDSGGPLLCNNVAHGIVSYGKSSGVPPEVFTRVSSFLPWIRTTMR
Test: Selectivity assay, cathepsin G
Format: biochemical
Conditions: for IC50: Cathepsin G, no preincubation
Description: Compound No. 1 was assayed for inhibition against papain and cathepsins B, G, K, S, and V. Papain from Carica papaya (Calbiochem 5125, 11 ng/mL), human cathepsin K (Calbiochem 342001, 35 ng/mL), human spleen cathepsin S (Calbiochem 219344, 40 ng/mL), and human cathepsin V (Calbiochem 219467, 39 ng/ml) were assayed using Z-Phe-Arg-AMC substrate at 20 μM, 20 μM, 15 μM, and 1 μM, respectively. Human liver cathepsin B (Calbiochem 219362, 65 ng/mL) was assayed using 15 μM Z-Arg-Arg-AMC substrate (Bachem I-1135). Human neutrophil cathepsin G (Calbiochem 219373, 4.2 μg/mL) was assayed using 15 μM Suc-Ala-Ala-Pro-Phe-AMC substrate (Sigma S9761). All reactions were performed in 20 mM sodium acetate buffer containing 5 mM cysteine and 1 mM EDTA, pH 5.5. Reaction progress was monitored using the Envision microplate reader. IC50 values were measured in triplicate.

`CCc1ccccc1NC(=O)CSC(=O)NNC(=O)[C@H](Cc1c[nH]c2ccccc12)NC(=O)OC(C)(C)C` [Compound No. 1] was tested, and the “inhibitory activity against cathepsin G (in words)” value was “no inhibitory activity”, the IC50 (human neutrophil, 10 min) was > 50 µM and the IC50 (30 min, read-out: IC50 @ 30 min) was > 50 µM. For the same compound, the IC50 (60 min, read-out: IC50 @ 60 min) was > 50 µM and the IC50 (90 min, read-out: IC50 @ 90 min) was > 50 µM.
